Experimental data taken from patent publication US12134610B2, “Somatostatin subtype-2 receptor (SST2R) targeted therapeutics and uses thereof” (priority 2022, dated 2024).
Starred links: 1 amine or outer side, 2 acyl side, 3 side chain; linkers in the order of their positions; H or OH if unused. Non-standard residues stand in square brackets, D forms with d. Residues, ends and D or L forms follow the SMILES beside them. *: point of attachment. X1 = Cc1cc(F)cc(-c2cnc(NCCNC(=O)CCOCCC(=O)*)c(-c3nc4ccc(Cl)cc4[nH]3)c2N2CCC(N)CC2)c1; X3 = Cc1cc(F)cc(-c2cnc(NCCN*)c(-c3nc4ccc(Cl)cc4[nH]3)c2N2CCC(N)CC2)c1; Dolaproine = CO[C@@H]([C@@H]1CCCN1)[C@@H](C)C(=O)O; Dil = CC[C@H](C)[C@H](NC)[C@@H](CC(=O)O)OC; PABC = O=C(OCc1ccc(N[*:1])cc1)[*:2]; Glutaryl = O=C(CCCC(=O)[*:2])[*:1]; X2 = C[C@@H](N*)[C@@H](O)c1ccccc1; Cya = N[C@@H](CS(=O)(=O)O)C(=O)O; Cit = NC(=O)NCCC[C@H](N)C(=O)O; NMeV = CN[C@H](C(=O)O)C(C)C; Sar = CNCC(=O)O

Legend:
Type in all cases: cell-based
[1] = system: NCI-H524 (ATCC) human small cell lung cancer cells; conditions: 2 h
Summary of the method: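 NCI-H524 cells (5,000/well) were exposed 24 h after plating to SMDC for 2 h, 11-point two-fold series from 1 uM. After washout they grew a further 70 h. Proliferation was read by CellTiter-Glo luminescence, % inhibition taken vs untreated control, and IC50 fitted by four-parameter nonlinear regression.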

[2] = target: T1, human somatostatin receptor subtype 2 (Homo sapiens, UniProt P30874); experiment: Functional cAMP assay for SSTR2 agonists (HTRF) in CHO-K1 cells; conditions: CHO-K1 cells stably expressing human SST2, 20 min; read-out: hSST2 cAMP Avg EC50
T1 construct: expressed in transfected cells
T1 sequence (P30874 whole entry): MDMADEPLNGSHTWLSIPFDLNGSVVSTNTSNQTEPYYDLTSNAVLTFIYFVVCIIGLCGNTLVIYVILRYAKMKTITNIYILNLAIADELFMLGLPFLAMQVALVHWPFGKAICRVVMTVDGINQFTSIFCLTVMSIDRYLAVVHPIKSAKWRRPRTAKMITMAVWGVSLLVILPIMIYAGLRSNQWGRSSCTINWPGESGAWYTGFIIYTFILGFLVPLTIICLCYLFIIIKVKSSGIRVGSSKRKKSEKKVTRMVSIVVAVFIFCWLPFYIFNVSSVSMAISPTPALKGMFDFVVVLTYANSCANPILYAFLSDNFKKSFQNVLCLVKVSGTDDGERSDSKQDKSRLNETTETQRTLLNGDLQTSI
Summary of the method: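 CHO-K1 cells stably expressing receptor, plated 4 days before assay, treated 20 min at 37° C. with compound (typically 0-10,000 nM final) plus IBMX and 1.6 μM NKH477 to raise cAMP. HTRF read, 665/620 nm ratio; cAMP from standard curve, EC50 fitted.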

SST2 = target: T2, SST2 (Homo sapiens, UniProt P30874); experiment: PathHunter CHO-K1 SST2 internalization assay; conditions: PathHunter CHO-K1 SST2, 90 min; read-out: Internalization EC50
T2 construct: host or cells: PathHunter CHO-K1 SST2 cells
T2 sequence (P30874 whole entry): as above
Summary of the method: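 PathHunter CHO-K1 SST2 cells, seeded and grown 48 h, were exposed to 11-point 1:3 dilutions of SMDC (top final 10 uM) for 90 min at 37 C, 5% CO2. Beta-Glo luminescence was read after 60 min at room temperature. Background-corrected duplicate means were fitted by four-parameter nonlinear regression to give IC50.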

SMILES	EC50 [1] [nM]	EC50 [2] [nM]	EC50 (SST2) [nM]
CC[C@H](C)[C@@H]([C@@H](CC(=O)N1CCC[C@H]1[C@H](OC)[C@@H](C)C(=O)N[C@H](C)[C@@H](O)c1ccccc1)OC)N(C)C(=O)[C@@H](NC(=O)[C@H](C(C)C)N(C)C(=O)OCc1ccc(NC(=O)[C@H](C)NC(=O)[C@@H](NC(=O)CCOCCC(=O)N[C@@H](CS(=O)(=O)O)C(=O)NCCNc2ncc(-c3cc(C)cc(F)c3)c(N3CCC(N)CC3)c2-c2nc3ccc(Cl)cc3[nH]2)C(C)C)c(O[C@@H]2O[C@H](CO)[C@@H](O)[C@H](O)[C@H]2O)c1)C(C)C [Compound 66]	300	0.13	15
COc1cc2cc(c1Cl)N(C)C(=O)CC(OC(=O)[C@@H](C)N(C)C(=O)CCSSCCOCCOCCOCCOCCOCCOCCOCCOCCC(=O)NCCNc1ncc(-c3cc(C)cc(F)c3)c(N3CCC(N)CC3)c1-c1nc3ccc(Cl)cc3[nH]1)[C@]1(C)OC1[C@@H](C)C1C[C@@](O)(NC(=O)O1)[C@H](OC)/C=C/C=C(\C)C2 (stereo partly drawn) [Compound 22]	27.1	0.36	26
CC[C@H](C)[C@@H]([C@@H](CC(=O)N1CCC[C@H]1[C@H](OC)[C@@H](C)C(=O)N[C@H](C)[C@@H](O)c1ccccc1)OC)N(C)C(=O)[C@@H](NC(=O)[C@H](C(C)C)N(C)C(=O)OCc1ccc(NC(=O)[C@H](CCCNC(N)=O)NC(=O)[C@@H](NC(=O)[C@H](CS(=O)(=O)O)NC(=O)CCOCCOCCOCCOCCC(=O)NCCNc2ncc(-c3cc(C)cc(F)c3)c(N3CCC(N)CC3)c2-c2nc3ccc(Cl)cc3[nH]2)C(C)C)cc1C(=O)NCCN)C(C)C [Compound 100]	6.4	0.14	3.3
CC[C@H](C)[C@@H]([C@@H](CC(=O)N1CCC[C@H]1[C@H](OC)[C@@H](C)C(=O)N[C@H](C)[C@@H](O)c1ccccc1)OC)N(C)C(=O)[C@@H](NC(=O)[C@H](C(C)C)N(C)C(=O)OCc1ccc(NC(=O)[C@H](CCCNC(N)=O)NC(=O)[C@@H](NC(=O)[C@H](CS(=O)(=O)O)NC(=O)[C@H](CCC(=O)O)NC(=O)CCOCCC(=O)NCCNc2ncc(-c3cc(C)cc(F)c3)c(N3CCC(N)CC3)c2-c2nc3ccc(Cl)cc3[nH]2)C(C)C)cc1)C(C)C [Compound 105] (X1-E[Cya]V[Cit][PABC][NMeV]V[Dil][Dolaproine]-X2)	290	0.18	14
CC[C@H](C)[C@@H]([C@@H](CC(=O)N1CCC[C@H]1[C@H](OC)[C@@H](C)C(=O)N[C@H](C)[C@@H](O)c1ccccc1)OC)N(C)C(=O)[C@@H](NC(=O)[C@H](C(C)C)N(C)C(=O)OCc1ccc(NC(=O)[C@H](CCCNC(N)=O)NC(=O)[C@@H](NC(=O)CCOCCOCCOCCOCCNCCNc2ncc(-c3cc(C)cc(F)c3)c(N3CCC(N)CC3)c2-c2nc3ccc(Cl)cc3[nH]2)C(C)C)c(O[C@@H]2O[C@H](C(=O)O)[C@@H](O)[C@H](O)[C@H]2O)c1)C(C)C [Compound 129]	290	0.34	21
CC[C@H](C)[C@@H]([C@@H](CC(=O)N1CCC[C@H]1[C@H](OC)[C@@H](C)C(=O)N[C@H](C)[C@@H](O)c1ccccc1)OC)N(C)C(=O)[C@@H](NC(=O)[C@H](C(C)C)N(C)C(=O)OCc1ccc(NC(=O)[C@H](C)NC(=O)[C@@H](NC(=O)[C@H](CCC(=O)O)NC(=O)CCOCCOCCOCCOCCC(=O)NCCNc2ncc(-c3cc(C)cc(F)c3)c(N3CCC(N)CC3)c2-c2nc3ccc(Cl)cc3[nH]2)C(C)C)c(O[C@@H]2O[C@H](C(=O)O)[C@@H](O)[C@H](O)[C@H]2O)c1)C(C)C [Compound 152]	91	0.2	5.8
CC[C@H](C)[C@@H]([C@@H](CC(=O)N1CCC[C@H]1[C@H](OC)[C@@H](C)C(=O)N[C@H](C)[C@@H](O)c1ccccc1)OC)N(C)C(=O)[C@@H](NC(=O)[C@H](C(C)C)N(C)C(=O)OCc1ccc(NC(=O)[C@H](CCCNC(N)=O)NC(=O)[C@@H](NC(=O)[C@H](CCC(N)=O)NC(=O)CCOCCC(=O)NCCNc2ncc(-c3cc(C)cc(F)c3)c(N3CCC(N)CC3)c2-c2nc3ccc(Cl)cc3[nH]2)C(C)C)c(O[C@@H]2O[C@H](C(=O)O)[C@@H](O)[C@H](O)[C@H]2O)c1)C(C)C [Compound 151]	8.9	0.28	2.2
COc1cc2cc(c1Cl)N(C)C(=O)CC(OC(=O)[C@@H](C)N(C)C(=O)CCS[C@@H]1CC(=O)N(CC3CCC(C(=O)NCCCC[C@H](N)C(=O)NCCNc4ncc(-c5cc(C)cc(F)c5)c(N5CCC(N)CC5)c4-c4nc5ccc(Cl)cc5[nH]4)CC3)C1=O)[C@]1(C)OC1[C@@H](C)C1C[C@@](O)(NC(=O)O1)[C@H](OC)/C=C/C=C(\C)C2 (stereo partly drawn) [Compound 8]	447	0.12	23.6
CC[C@H](C)[C@@H]([C@@H](CC(=O)N1CCC[C@H]1[C@H](OC)[C@@H](C)C(=O)N[C@H](C)[C@@H](O)c1ccccc1)OC)N(C)C(=O)[C@@H](NC(=O)[C@H](C(C)C)N(C)C(=O)OCc1ccc(NC(=O)[C@H](CCCNC(N)=O)NC(=O)[C@@H](NC(=O)CCCC(=O)N(C)CC(=O)N(C)CC(=O)N(C)CC(=O)NCCNc2ncc(-c3cc(C)cc(F)c3)c(N3CCC(N)CC3)c2-c2nc3ccc(Cl)cc3[nH]2)C(C)C)cc1)C(C)C [Compound 96] ({X3-Sar-Sar-Sar-Glutaryl}-V[Cit][PABC][NMeV]V[Dil][Dolaproine]-X2)	21	0.47	4.9
CC[C@H](C)[C@@H]([C@@H](CC(=O)N1CCC[C@H]1[C@H](OC)[C@@H](C)C(=O)N[C@H](C)[C@@H](O)c1ccccc1)OC)N(C)C(=O)[C@@H](NC(=O)[C@H](C(C)C)N(C)C(=O)OCc1ccc(NC(=O)[C@H](C)NC(=O)[C@@H](NC(=O)[C@H](CCC(=O)O)NC(=O)CCOCCC(=O)NCCNc2ncc(-c3cc(C)cc(F)c3)c(N3CCC(N)CC3)c2-c2nc3ccc(Cl)cc3[nH]2)C(C)C)cc1C(=O)NCCN)C(C)C [Compound 116]	6.6	0.1	3.9
CC[C@H](C)[C@@H]([C@@H](CC(=O)N1CCC[C@H]1[C@H](OC)[C@@H](C)C(=O)N[C@H](C)[C@@H](O)c1ccccc1)OC)N(C)C(=O)[C@@H](NC(=O)[C@H](C(C)C)N(C)C(=O)OCc1ccc(NC(=O)[C@H](CCCNC(N)=O)NC(=O)[C@@H](NC(=O)[C@H](CS(=O)(=O)O)NC(=O)CCOCCC(=O)NCCNc2ncc(-c3cc(C)cc(F)c3)c(N3CCC(N)CC3)c2-c2nc3ccc(Cl)cc3[nH]2)C(C)C)cc1C(=O)NCCN)C(C)C [Compound 99]	4.6	0.19	2.8
CC[C@H](C)[C@@H]([C@@H](CC(=O)N1CCC[C@H]1[C@H](OC)[C@@H](C)C(=O)N[C@H](C)[C@@H](O)c1ccccc1)OC)N(C)C(=O)[C@@H](NC(=O)[C@H](C(C)C)N(C)C(=O)OCc1ccc(NC(=O)[C@H](CCCNC(N)=O)NC(=O)[C@@H](NC(=O)CCCC(=O)N(C)CC(=O)N(C)CC(=O)N(C)CC(=O)N(C)CC(=O)N(C)CC(=O)NCCNc2ncc(-c3cc(C)cc(F)c3)c(N3CCC(N)CC3)c2-c2nc3ccc(Cl)cc3[nH]2)C(C)C)cc1)C(C)C [Compound 97]	35	0.3	4.5
CC[C@H](C)[C@@H]([C@@H](CC(=O)N1CCC[C@H]1[C@H](OC)[C@@H](C)C(=O)N[C@H](C)[C@@H](O)c1ccccc1)OC)N(C)C(=O)[C@@H](NC(=O)[C@H](C(C)C)N(C)C(=O)OCc1ccc(NC(=O)[C@H](C)NC(=O)[C@@H](NC(=O)CCOCCC(=O)NCCNc2ncc(-c3cc(C)cc(F)c3)c(N3CCC(N)CC3)c2-c2nc3ccc(Cl)cc3[nH]2)C(C)C)c(O[C@@H]2O[C@H](CO)[C@@H](O)[C@H](O)[C@H]2O)c1)C(C)C [Compound 131]	4	0.13	5.2
CC[C@H](C)[C@@H]([C@@H](CC(=O)N1CCC[C@H]1[C@H](OC)[C@@H](C)C(=O)N[C@H](C)[C@@H](O)c1ccccc1)OC)N(C)C(=O)[C@@H](NC(=O)[C@H](C(C)C)N(C)C(=O)OCc1ccc(NC(=O)[C@H](CCCNC(N)=O)NC(=O)[C@@H](NC(=O)CN2CCN(CC(=O)O)CCN(CC(=O)NCCOCCOCCOCCOCCC(=O)NCCNc3ncc(-c4cc(C)cc(F)c4)c(N4CCC(N)CC4)c3-c3nc4ccc(Cl)cc4[nH]3)CC2)C(C)C)cc1)C(C)C [Compound 39]	35.9	0.12	18.7
CC[C@H](C)[C@@H]([C@@H](CC(=O)N1CCC[C@H]1[C@H](OC)[C@@H](C)C(=O)N[C@H](C)[C@@H](O)c1ccccc1)OC)N(C)C(=O)[C@@H](NC(=O)[C@H](C(C)C)N(C)C(=O)OCc1ccc(NC(=O)[C@H](CCCNC(N)=O)NC(=O)[C@@H](NC(=O)CCOCCOCCC(=O)NCCNc2ncc(-c3cc(C)cc(F)c3)c(N3CCC(N)CC3)c2-c2nc3ccc(Cl)cc3[nH]2)C(C)C)c(O[C@@H]2O[C@H](C(=O)O)[C@@H](O)[C@H](O)[C@H]2O)c1)C(C)C [Compound 137]	6.7	0.51	4.6
CC[C@H](C)[C@@H]([C@@H](CC(=O)N1CCC[C@H]1[C@H](OC)[C@@H](C)C(=O)N[C@H](C)[C@@H](O)c1ccccc1)OC)N(C)C(=O)[C@@H](NC(=O)[C@H](C(C)C)N(C)C(=O)OCc1ccc2cc1C(=O)NCCNC(=O)CC[C@H](NC(=O)CCOCCC(=O)NCCNc1ncc(-c3cc(C)cc(F)c3)c(N3CCC(N)CC3)c1-c1nc3ccc(Cl)cc3[nH]1)C(=O)N[C@@H](C(C)C)C(=O)N[C@@H](CCCNC(N)=O)C(=O)N2)C(C)C [Compound 59]	14	0.35	6.5
